Like-named read-outs stand apart in the source and are kept apart here.
Assays:
[1] = biological target: T1, human NMB receptor (BB1) (Homo sapiens, UniProt P28336); assay: BB1 binding assay ([125I][Tyr4]bombesin displacement, CHO-K1 membranes)
T1 construct: expressed in transfected cells; membranes prepared from the cells
Description: (§1) In the following experiments, measurement of BB1 and BB2 binding was as follows. CHO-K1 cells stably expressing cloned human NMB (for (BB1 assay) and GRP receptors (for BB2 assay) were routinely grown in Ham's F12 culture medium supplemented with 10% foetal calf serum and 2 mM glutamine. For binding experiments, cells were harvested by trypsinization, and stored frozen at −70° C. in Ham's F12 culture medium containing 5% DMSO until required. On the day of use, cells were thawed rapidly, diluted with an excess of culture medium, and centrifuged for 5 minutes at 2000 g. Cells were resuspended in 50 mM Tris-HCl assay buffer (pH 7.4 at 21° C., containing 0.02% BSA, 40 μg/mL bacitracin, 2 μg/mL chymostatin, 4 μg/mL leupeptin, and 2 μM phosphoramidon), counted, and polytronned (setting 5, 10 sec) before centrifuging for 10 minutes at 28,000 g. The final pellet was resuspended in assay buffer to a final cell concentration of 1.5×10^5/mL. For binding assays, […] aliquots of membranes were incubated with [^125I][Tyr^4]bombesin (<0.1 nM) in the presence and absence of test compounds (final assay volume 250 μL) for 60 minutes and 90 minutes for NMB and GRP receptors, respectively. Nonspecific binding was defined by 1 μM bombesin. Assays were terminated by rapid filtration under vacuum onto Whatman GF/C filters presoaked in 0.2% PEI for >2 hours, and washed 50 mM Tris-HCl (pH 6.9 at 21° C.; 6×1 mL). Radioactivity bound was determined using a gamma counter.
(§2) All competition data was analysed using nonlinear regression utilizing iterative curve-plotting procedures in Prism® (GraphPad Software Inc., San Diego, USA). IC50 values were corrected to Ki values using the Cheng-Prusoff equation (Cheng Y., Prusoff W. H., Biochem. Pharmacol. 22: 3099-3108, 1973). obtained are listed in Table 1.

[2] = biological target: T2, human GRP receptor (BB2) (Homo sapiens, UniProt P30550); assay: BB2 binding assay ([125I][Tyr4]bombesin displacement, CHO-K1 membranes)
T2 construct: expressed in transfected cells; membranes prepared from the cells
T2 sequence (P30550 whole entry): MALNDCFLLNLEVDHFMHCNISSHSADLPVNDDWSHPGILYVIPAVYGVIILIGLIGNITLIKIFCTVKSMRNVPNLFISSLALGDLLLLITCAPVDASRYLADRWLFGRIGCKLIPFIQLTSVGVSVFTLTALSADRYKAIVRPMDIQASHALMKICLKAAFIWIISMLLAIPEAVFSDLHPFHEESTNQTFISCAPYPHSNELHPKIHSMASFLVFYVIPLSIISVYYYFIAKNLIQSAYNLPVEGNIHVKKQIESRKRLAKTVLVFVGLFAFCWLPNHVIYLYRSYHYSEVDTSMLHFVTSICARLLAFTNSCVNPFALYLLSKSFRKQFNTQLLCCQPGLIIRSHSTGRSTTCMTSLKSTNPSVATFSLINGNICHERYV
Description: as §1, §2

[3] = second 'TABLE 4', N-terminal urethane derivatives of Intermediate III-7
[4] = Table 3, N-acyl derivatives of Intermediate III-7

T1 sequence (P28336 whole entry): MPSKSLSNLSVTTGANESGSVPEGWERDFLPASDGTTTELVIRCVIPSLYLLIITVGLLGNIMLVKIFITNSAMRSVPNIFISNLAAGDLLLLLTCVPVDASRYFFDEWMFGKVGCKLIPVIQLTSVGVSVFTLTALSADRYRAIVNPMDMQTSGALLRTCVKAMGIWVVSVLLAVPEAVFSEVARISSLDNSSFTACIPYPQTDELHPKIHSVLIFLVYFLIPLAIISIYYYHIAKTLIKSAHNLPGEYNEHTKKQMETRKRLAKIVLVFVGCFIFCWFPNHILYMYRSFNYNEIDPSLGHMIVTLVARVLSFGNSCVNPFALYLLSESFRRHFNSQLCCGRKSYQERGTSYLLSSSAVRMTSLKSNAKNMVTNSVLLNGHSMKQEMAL

Row | IC50 [1, 4] [µM] | IC50 [2, 4] [µM] | further results | Compound
1 |  |  | Ki ([1]; Table 1, human NMB receptor binding affinity, Ki from IC50 by Cheng-Prusoff, read-out: NMB Ki): 0.616 µM; Ki ([2]; Table 1, human GRP receptor binding affinity, Ki from IC50 by Cheng-Prusoff, read-out: GRP Kj): 2.62 µM | C[C@@](Cc1c[nH]c2ccccc12)(NCCc1ccccc1)C(=O)NCC1(c2ccccn2)CCCCC1 [Example 25, (S)-3-(1H-Indol-3-yl)-2-methyl-2-phenylethylamino-N-(1-pyridin-2-yl-cyclohexylmethyl)-propionamide]
2 |  |  | IC50 [1, 3]: 0.182 µM; IC50 [2, 3]: > 10 µM | C[C@@](Cc1c[nH]c2ccccc12)(NC(=O)OCc1cccc(C(F)(F)F)c1)C(=O)NCC1(c2ccccn2)CCCCC1 [Example 107, {(S)-2-(1H-Indol-3-yl)-1-methyl-1-[(1-pyridin-2-yl-cyclohexylmethyl)-carbamoyl]-ethyl}-carbamic acid 3-trifluoromethyl-benzyl ester]
3 | 3.23 | > 10 |  | C[C@@](Cc1c[nH]c2ccccc12)(NC(=O)c1ccccc1Cl)C(=O)NCC1(c2ccccn2)CCCCC1 [Example 44, 2-Chloro-N—{(S)-2-(1H-indol-3-yl)-1-methyl-1-[(1-pyridin-2-yl-cyclohexyl-methyl)-carbamoyl]-ethyl}-benzamide]
4 |  |  | IC50 [1]: 0.186 µM; IC50 [2]: > 10 µM | C[C@@](Cc1c[nH]c2ccccc12)(NS(=O)(=O)Cc1ccccc1)C(=O)NCC1(c2ccccn2)CCCCC1 [Example 111, (S)-3-(1H-indol-3-yl)-2-methyl-2-phenylmethanesulfonylamino-N-(1-pyridin-2-yl-cyclohexylmethyl)-propionamide]
5 | 1.44 | > 10 |  | C[C@@](Cc1c[nH]c2ccccc12)(NC(=O)Cc1ccsc1)C(=O)NCC1(c2ccccn2)CCCCC1 [Example 56, (S)-3-(1H-Indol-3-yl)-2-methyl-N-(1-pyridin-2-yl-cyclohexylmethyl)-2-(2-thiophen-3-yl-ethanoylamino)-propionamide]
6 |  |  | IC50 [1, 3]: 0.239 µM; IC50 [2, 3]: > 10 µM | C[C@@](Cc1c[nH]c2ccccc12)(NC(=O)OCc1cccc2ccccc12)C(=O)NCC1(c2ccccn2)CCCCC1 [Example 87, {(S)-2-(1H-Indol-3-yl)-1-methyl-1-[(1-pyridin-2-yl-cyclohexylmethyl)-carbamoyl]-ethyl}-carbamic acid naphthalen-1-ylmethyl ester]
7 | 1.23 | > 10 |  | Cn1c(C(=O)N[C@@](C)(Cc2c[nH]c3ccccc23)C(=O)NCC2(c3ccccn3)CCCCC2)cc2ccccc21 [Example 70, 1-Methyl-1H-indole-2-carboxylic acid {(S)-2-(1H-indol-3-yl)-1-methyl-1-[(1-pyridin-2-yl-cyclohexylmethyl)-carbamoyl]-ethyl}-amide]
8 |  |  | IC50 [2]: > 10 µM | CC(Cc1c[nH]c2ccccc12)(NS(=O)(=O)c1cc(Cl)sc1Cl)C(=O)NCC1(c2ccccn2)CCCCC1 (stereo not drawn) [Example 157]
9 | 2.82 | > 10 |  | Cc1cccc(C(=O)N[C@@](C)(Cc2c[nH]c3ccccc23)C(=O)NCC2(c3ccccn3)CCCCC2)n1 [Example 76, 6-Methyl-pyridine-2-carboxylic acid {(S)-2-(1H-indol-3-yl)-1-methyl-1-[(1-pyridin-2-yl-cyclohexylmethyl)-carbamoyl]-ethyl}-amide]
10 | 1.44 | > 10 |  | C[C@@](Cc1c[nH]c2ccccc12)(NC(=O)c1cccs1)C(=O)NCC1(c2ccccn2)CCCCC1 [Example 64, Thiophene-2-carboxylic acid {(S)-2-(1H-indol-3-yl)-1-methyl-1-[(1-pyridin-2-yl-cyclohexylmethyl)-carbamoyl]-ethyl}-amide]
11 | 0.611 | > 10 |  | C[C@@](Cc1c[nH]c2ccccc12)(NC(=O)c1cc2ccccc2s1)C(=O)NCC1(c2ccccn2)CCCCC1 [Example 71, Benzo[b]thiophene-2-carboxylic acid {(S)-2-(1H-indol-3-yl)-1-methyl-1-[(1-pyridin-2-yl-cyclohexylmethyl)-carbamoyl]-ethyl}-amide]
12 | 0.744 | > 10 |  | Cc1ccsc1C(=O)N[C@@](C)(Cc1c[nH]c2ccccc12)C(=O)NCC1(c2ccccn2)CCCCC1 [Example 74, 3-Methyl-thiophene-2-carboxylic acid {(S)-2-(1H-indol-3-yl)-1-methyl-1-[(1-pyridin-2-yl-cyclohexylmethyl)-carbamoyl]-ethyl}-amide]
13 | 3.05 | > 10 |  | C[C@@](Cc1c[nH]c2ccccc12)(NC(=O)c1cccc(S(C)(=O)=O)c1)C(=O)NCC1(c2ccccn2)CCCCC1 [Example 41, N—{(S)-2-(1H-Indol-3-yl)-1-methyl-1-[(1-pyridin-2-yl-cyclohexylmethyl)-carbamoyl]-ethyl}-3-methanesulfonyl-benzamide]
14 | 2.88 | > 10 |  | COc1ccc(C(=O)N[C@@](C)(Cc2c[nH]c3ccccc23)C(=O)NCC2(c3ccccn3)CCCCC2)cc1 [Example 35, N—{(S)-2-(1H-Indol-3-yl)-1-methyl-1-[(1-pyridin-2-yl-cyclohexylmethyl)-carbamoyl]-ethyl}-4-methoxy-benzamide]
15 |  |  | IC50 [1]: 0.393 µM; IC50 [2]: 1.02 µM | Cc1cccc(S(=O)(=O)N[C@@](C)(Cc2c[nH]c3ccccc23)C(=O)NCC2(c3ccccn3)CCCCC2)c1 [Example 131]
16 |  |  | IC50 [1, 3]: 0.751 µM; IC50 [2, 3]: > 10 µM | Cc1ccccc1COC(=O)N[C@@](C)(Cc1c[nH]c2ccccc12)C(=O)NCC1(c2ccccn2)CCCCC1 [Example 97, {(S)-2-(1H-Indol-3-yl)-1-methyl-1-[(1-pyridin-2-yl-cyclohexylmethyl)-carbamoyl]-ethyl}-carbamic acid 2-methyl-benzyl ester]
17 | 3.95 | > 10 |  | C[C@@](Cc1c[nH]c2ccccc12)(NC(=O)c1ccccc1F)C(=O)NCC1(c2ccccn2)CCCCC1 [Example 49, 2-Fluoro-N—{(S)-2-(1H-indol-3-yl)-1-methyl-1-[(1-pyridin-2-yl-cyclohexylmethyl)-carbamoyl]-ethyl}-benzamide]
18 |  |  | IC50 [1, 3]: 0.841 µM; IC50 [2, 3]: > 10 µM | Cc1cccc(COC(=O)N[C@@](C)(Cc2c[nH]c3ccccc23)C(=O)NCC2(c3ccccn3)CCCCC2)c1 [Example 105, {(S)-2-(1H-Indol-3-yl)-1-methyl-1-[(1-pyridin-2-yl-cyclohexylmethyl)-carbamoyl]-ethyl}-carbamic acid 3-methyl-benzyl ester]
19 |  |  | IC50 [1]: 0.108 µM; IC50 [2]: > 10 µM | C[C@@](Cc1c[nH]c2ccccc12)(NS(=O)(=O)c1cccc2cccnc12)C(=O)NCC1(c2ccccn2)CCCCC1 [Example 120, (S)-3-(1H-indol-3-yl)-2-methyl-N-(1-pyridin-2-yl-cyclohexylmethyl)-2-(quinoline-8-sulfonylamino)-propionamide]
20 |  | > 10 |  | Dimethylamino-N—{(S)-2-(1H-indol-3-yl)-1-methyl-1-[(1-pyridin-2-yl-cyclohexyl-methyl)-carbamoyl]-ethyl}-benzamide [Example 42]
21 |  | > 10 |  | Cc1ccc(C(=O)N[C@@](C)(Cc2c[nH]c3ccccc23)C(=O)NCC2(c3ccccn3)CCCCC2)cc1 [Example 33, N—{(S)-2-(1H-Indol-3-yl)-1-methyl-1-[(1-pyridin-2-yl-cyclohexylmethyl)-carbamoyl]-ethyl}-4-methyl-benzamide]
22 | 1.2 |  |  | C[C@@](Cc1c[nH]c2ccccc12)(NC(=O)c1ccco1)C(=O)NCC1(c2ccccn2)CCCCC1 [Example 60]
23 |  |  | IC50 [1]: 0.177 µM | C[C@@](Cc1c[nH]c2ccccc12)(NS(=O)(=O)c1cccc2cccc([N+](=O)[O-])c12)C(=O)NCC1(c2ccccn2)CCCCC1 [Example 146]
24 |  | > 10 |  | C[C@@](Cc1c[nH]c2ccccc12)(NC(=O)c1ccccc1)C(=O)NCC1(c2ccccn2)CCCCC1 [Example 32, N—{(S)-2-(1H-Indol-3-yl)-1-methyl-1-[(1-pyridin-2-yl-cyclohexylmethyl)-carbamoyl]-ethyl}-benzamide]
25 | 1.36 |  |  | C[C@@](Cc1c[nH]c2ccccc12)(NC(=O)c1cc2ccccc2cn1)C(=O)NCC1(c2ccccn2)CCCCC1 [Example 77, Isoquinoline-3-carboxylic acid {(S)-2-(1H-indol-3-yl)-1-methyl-1-[(1-pyridin-2-yl-cyclohexylmethyl)-carbamoyl]-ethyl}-amide]
26 | 3.17 |  |  | C[C@@](Cc1c[nH]c2ccccc12)(NC(=O)c1ccc2[nH]nnc2c1)C(=O)NCC1(c2ccccn2)CCCCC1 [Example 73, 1H-Benzotriazole-5-carboxylic acid {(S)-2-(1H-indol-3-yl)-1-methyl-1-[(1-pyridin-2-yl-cyclohexylmethyl)-carbamoyl]-ethyl}-amide]
27 |  |  | IC50 [1]: 0.322 µM | C[C@@](Cc1c[nH]c2ccccc12)(NS(=O)(=O)c1ccc2ccccc2c1)C(=O)NCC1(c2ccccn2)CCCCC1 [Example 118]

— patent US20020169101A1, “Treatment of sexual dysfunction” (priority 1999, published 2002)
